Experimental findings from ChEMBL document CHEMBL5608189, “Design and synthesis of unique indole-benzosulfonamide oleanolic acid derivatives as potent antibacterial agents against MRSA” (Eur J Med Chem, 2024) are described below.

Values after ≈ are worked out from the molar mass of the structure shown. Active and inactive are the calls of the source. The rule behind the calls is not given here.

For data set [1], the system named is Staphylococcus aureus. Briefly: Bactericidal activity against Staphylococcus aureus ATCC 29213 measured after 24 hrs. Type of data set: functional.
Data set [2] relates to Staphylococcus aureus. Briefly: Resistant development in methicillin-resistant Staphylococcus aureus assessed as increase in MIC at sub-MIC measured after 20 passages. Type of data set: functional, organism-based.
The subject of data set [3] is Staphylococcus aureus. Briefly: Antibacterial activity against Staphylococcus aureus ATCC 6538 assessed as delay in bacterial growth at 0.5 times MIC measured every 2 hrs for 24 hrs by time kill assay. Format: functional, organism-based.
Data set [4] has as its system Staphylococcus aureus. Briefly: Antibacterial activity against Staphylococcus aureus ATCC 6538 assessed as inhibition of bacterial growth at 2 to 4 times MIC measured every 2 hrs for 24 hrs by time kill assay relative to control. Format: functional.
The test system of data set [5] is Staphylococcus aureus. Briefly: Antibacterial activity against methicillin-resistant Staphylococcus aureus assessed as inhibition of bacterial growth at 2 to 4 times MIC measured every 2 hrs for 24 hrs by time kill assay relative to control. Type of data set: functional.
For data set [6], the system named is Staphylococcus epidermidis. Kind of data set: Antibacterial activity against Staphylococcus epidermidis ATCC 12228 assessed as inhibition of bacterial growth at 1 times MIC measured every 2 hrs for 24 hrs by time kill assay. Format: functional, organism-based.
Data set [7] concerns Staphylococcus epidermidis. Kind of data set: Antibacterial activity against Staphylococcus epidermidis ATCC 12228 assessed as inhibition of bacterial growth at 2 to 4 times MIC measured every 2 hrs for 24 hrs by time kill assay relative to control. Type of data set: functional.
The subject of data set [8] is Staphylococcus aureus. Kind of data set: Antibacterial activity against methicillin-resistant Staphylococcus aureus assessed as delay in bacterial growth at 0.5 times MIC measured every 2 hrs for 24 hrs by time kill assay. Format: functional, organism-based.
The nature of data set [9]: Hemolytic activity in rabbit red blood cells assessed as hemolytic rate at 128 times MIC measured after 1 hr by absorbance based method relative to control. Type of data set: toxicity, cell-based, Oryctolagus cuniculus, Erythrocyte. The following applies: rabbit red blood cells (erythrocytes), read-out: Activity.
In data set [10] the test system is Staphylococcus aureus. Briefly: Bactericidal activity against methicillin-resistant Staphylococcus aureus measured after 24 hrs. Format: functional.
For data set [11], the system named is Staphylococcus epidermidis. Briefly: Bactericidal activity against Staphylococcus epidermidis ATCC 12228 measured after 24 hrs. Type of data set: functional.
In data set [12] the test system is Staphylococcus aureus. Briefly: Antibacterial activity against methicillin-resistant Staphylococcus aureus measured after 24 hrs by susceptibility assay. Type of data set: functional.
The test system of data set [13] is Staphylococcus epidermidis. Kind of data set: Antibacterial activity against Staphylococcus epidermidis ATCC 12228 assessed as delay in bacterial growth at 0.5 times MIC measured every 2 hrs for 24 hrs by time kill assay. Format: functional, organism-based.
Data set [14] deals with Staphylococcus aureus. Kind of data set: Antibacterial activity against Staphylococcus aureus ATCC 6538 assessed as inhibition of bacterial growth at 1 times MIC measured every 2 hrs for 24 hrs by time kill assay. Type of data set: functional, organism-based.
Data set [15] relates to Staphylococcus aureus. Briefly: Antibacterial activity against Staphylococcus aureus ATCC 29213 measured after 24 hrs by susceptibility assay. Format: functional.
The test system of data set [16] is Staphylococcus aureus. Briefly: Antibacterial activity against Staphylococcus aureus ATCC 6538 measured after 24 hrs by susceptibility assay. Type of data set: functional.
Data set [17] has as its system Staphylococcus aureus. Briefly: Bactericidal activity against Staphylococcus aureus ATCC 6538 measured after 24 hrs. Format: functional.
Data set [18] has as its system Staphylococcus epidermidis. Kind of data set: Antibacterial activity against Staphylococcus epidermidis ATCC 12228 measured after 24 hrs by susceptibility assay. Type of data set: functional.
The test system of data set [19] is Staphylococcus aureus. Briefly: Antibacterial activity against methicillin-resistant Staphylococcus aureus assessed as inhibition of bacterial growth at 1 times MIC measured every 2 hrs for 24 hrs by time kill assay. Format: functional, organism-based.
Data set [20] deals with Staphylococcus aureus. Kind of data set: Induction of morphological changes in methicillin-resistant Staphylococcus aureus assessed as appearance of wrinkled and depressed cell membrane surface at 8 times MIC incubated for 8 hrs by SEM analysis. Format: functional, organism-based.
The test system of data set [21] is Staphylococcus aureus. Kind of data set: Induction of morphological changes in methicillin-resistant Staphylococcus aureus assessed as disruption of cellular structure at 8 times MIC incubated for 8 hrs by SEM analysis. Format: functional, organism-based.

Take `Cc1ccc(S(=O)(=O)NC(=O)[C@]23CCC(C)(C)C[C@H]2C2=CC[C@@H]4[C@@]5(C)Cc6c([nH]c7c(C(=O)O)cccc67)C(C)(C)[C@@H]5CC[C@@]4(C)[C@]2(C)CC3)cc1`: the minimal bactericidal concentration (MBC) is 2 µM (≈ 1.45 µg/mL) against Staphylococcus aureus [1], 16 µM (≈ 11.6 µg/mL) in the data set with Staphylococcus aureus [10], 4 µM (≈ 2.9 µg/mL) in data set [11] and 2 µM (≈ 1.45 µg/mL) in the data set with Staphylococcus aureus [17]. In addition, the outcome in the data set with Staphylococcus aureus [2] was inactive. The outcome (in the data set with Staphylococcus aureus [3]; in data set [6]; in the data set with Staphylococcus aureus [8]; in [13]; with Staphylococcus aureus [14]; with Staphylococcus aureus [19]) was Active. The “inhibition (INH)” value (in the data set on Staphylococcus aureus [4]; with Staphylococcus aureus [5]; in data set [7]) was 100% throughout. For the same molecule, the hemolysis at 1 h, 128 times MIC in data set [9] was less than 5%. Moreover, the MIC in the data set with Staphylococcus aureus [12] turned out to be 2 µM (≈ 1.45 µg/mL); with Staphylococcus aureus [15], 2 µM (≈ 1.45 µg/mL); against Staphylococcus aureus [16], 1 µM (≈ 0.725 µg/mL); in [18], 2 µM (≈ 1.45 µg/mL).

As to `CC(=O)c1cccc2c3c([nH]c12)C(C)(C)[C@@H]1CC[C@]2(C)[C@H](CC=C4[C@@H]5CC(C)(C)CC[C@]5(C(=O)NS(=O)(=O)c5ccccc5)CC[C@]42C)[C@@]1(C)C3`, the MBC with Staphylococcus aureus [1] was 2 µM (≈ 1.42 µg/mL); against Staphylococcus aureus [10] it was 4 µM (≈ 2.84 µg/mL); in [11], 2 µM (≈ 1.42 µg/mL); in the data set on Staphylococcus aureus [17], 2 µM (≈ 1.42 µg/mL). The outcome in the data set on Staphylococcus aureus [2] was inactive. Moreover, the outcome (in the data set on Staphylococcus aureus [3]; in data set [6]; in the data set with Staphylococcus aureus [8]; in data set [13]; in the data set on Staphylococcus aureus [14]; in the data set on Staphylococcus aureus [19]) was Active. Also, the “inhibition (INH)” value (with Staphylococcus aureus [4]; in the data set on Staphylococcus aureus [5]; in data set [7]) was 100% each time. Also, the hemolysis at 1 h, 128 times MIC in data set [9] is less than 5%. For the same molecule, the minimum inhibitory concentration (MIC) with Staphylococcus aureus [12] was 1 µM (≈ 0.709 µg/mL); in the data set with Staphylococcus aureus [15], 2 µM (≈ 1.42 µg/mL); with Staphylococcus aureus [16], 1 µM (≈ 0.709 µg/mL); in data set [18], 0.5 µM (≈ 0.355 µg/mL).

In the case of `CCn1cc(C(=O)O)c(=O)c2cc(F)c(N3CCNCC3)cc21` [NORFLOXACIN], the outcome in the data set on Staphylococcus aureus [20] was Active. Besides, the MIC with Staphylococcus aureus [12] amounted to 4 µM (≈ 1.28 µg/mL); in the data set with Staphylococcus aureus [15], 2 µM (≈ 0.639 µg/mL); against Staphylococcus aureus [16], 2 µM (≈ 0.639 µg/mL); in data set [18], 1 µM (≈ 0.319 µg/mL). The result in the data set with Staphylococcus aureus [21] was inactive.

`CN1CCN(C(=O)[C@]23CCC(C)(C)C[C@H]2C2=CC[C@@H]4[C@@]5(C)Cc6c([nH]c7c(C(=O)O)cccc67)C(C)(C)[C@@H]5CC[C@@]4(C)[C@]2(C)CC3)CC1`: the MIC with Staphylococcus aureus [12] is more than 256 µM; against Staphylococcus aureus [15] it was more than 256 µM; against Staphylococcus aureus [16], more than 256 µM; in data set [18], 128 µM (≈ 83.7 µg/mL).

On to `CC1(C)CC[C@]2(C(=O)Nc3ccc(-c4ccccc4)cc3)CC[C@]3(C)C(=CC[C@@H]4[C@@]5(C)Cc6c([nH]c7c(C(=O)O)cccc67)C(C)(C)[C@@H]5CC[C@]43C)[C@@H]2C1`, for which the minimal inhibitory concentration (MIC) (with Staphylococcus aureus [12]; with Staphylococcus aureus [15]; with Staphylococcus aureus [16]; in [18]) was more than 256 µM throughout.

`CC1(C)CC[C@]2(C(=O)NS(=O)(=O)c3ccccc3)CC[C@]3(C)C(=CC[C@@H]4[C@@]5(C)Cc6c([nH]c7ccc(Cl)cc67)C(C)(C)[C@@H]5CC[C@]43C)[C@@H]2C1`: the MIC (against Staphylococcus aureus [12]; in the data set on Staphylococcus aureus [15]; against Staphylococcus aureus [16]; in data set [18]) was more than 256 µM each time.

As for `Cc1ccc(S(=O)(=O)NC(=O)[C@]23CCC(C)(C)C[C@H]2C2=CC[C@@H]4[C@@]5(C)CCC(=O)C(C)(C)[C@@H]5CC[C@@]4(C)[C@]2(C)CC3)cc1`, the MIC (in the data set on Staphylococcus aureus [12]; against Staphylococcus aureus [15]; in the data set with Staphylococcus aureus [16]; in data set [18]) was more than 256 µM each time.

Take `CC1(C)CC[C@]2(C(=O)NS(=O)(=O)c3ccccc3)CC[C@]3(C)C(=CC[C@@H]4[C@@]5(C)Cc6c([nH]c7ccc(F)cc67)C(C)(C)[C@@H]5CC[C@]43C)[C@@H]2C1`: the MIC (with Staphylococcus aureus [12]; in the data set with Staphylococcus aureus [15]; against Staphylococcus aureus [16]; in [18]) was more than 256 µM in each case.

Turning to `CC1(C)CC[C@]2(C(=O)Nc3ccc(-c4ccccc4)cc3)CC[C@]3(C)C(=CC[C@@H]4[C@@]5(C)Cc6c([nH]c7cc(C(=O)O)ccc67)C(C)(C)[C@@H]5CC[C@]43C)[C@@H]2C1`, the minimum inhibitory concentration (MIC) (against Staphylococcus aureus [12]; in the data set with Staphylococcus aureus [15]; with Staphylococcus aureus [16]; in [18]) was more than 256 µM in each case.

Take `CN1CCN(C(=O)[C@]23CCC(C)(C)C[C@H]2C2=CC[C@@H]4[C@@]5(C)Cc6c([nH]c7ccc(C(=O)O)cc67)C(C)(C)[C@@H]5CC[C@@]4(C)[C@]2(C)CC3)CC1`: the MIC (in the data set with Staphylococcus aureus [12]; in the data set on Staphylococcus aureus [15]; with Staphylococcus aureus [16]; in data set [18]) was more than 256 µM each time.

Consider `CC1(C)CC[C@]2(C(=O)Nc3ccc(-c4ccccc4)cc3)CC[C@]3(C)C(=CC[C@@H]4[C@@]5(C)Cc6c([nH]c7ccc(C(=O)O)cc67)C(C)(C)[C@@H]5CC[C@]43C)[C@@H]2C1`, for which the MIC (with Staphylococcus aureus [12]; with Staphylococcus aureus [15]; against Staphylococcus aureus [16]; in data set [18]) was more than 256 µM each time.

Take `CC1(C)CC[C@]2(C(=O)NS(=O)(=O)c3ccc(C(=O)O)cc3)CC[C@]3(C)C(=CC[C@@H]4[C@@]5(C)Cc6c([nH]c7c(C(=O)O)cccc67)C(C)(C)[C@@H]5CC[C@]43C)[C@@H]2C1`: the minimal inhibitory concentration (MIC) is 1 µM (≈ 0.755 µg/mL) in the data set with Staphylococcus aureus [12], 2 µM (≈ 1.51 µg/mL) in the data set with Staphylococcus aureus [15], 0.5 µM (≈ 0.377 µg/mL) against Staphylococcus aureus [16] and 1 µM (≈ 0.755 µg/mL) in data set [18].

Turning to `COc1ccc(S(=O)(=O)NC(=O)[C@]23CCC(C)(C)C[C@H]2C2=CC[C@@H]4[C@@]5(C)CCC(=O)C(C)(C)[C@@H]5CC[C@@]4(C)[C@]2(C)CC3)cc1`, the MIC (with Staphylococcus aureus [12]; against Staphylococcus aureus [15]; with Staphylococcus aureus [16]; in data set [18]) was more than 256 µM each time.

Consider `COc1cccc(OC)c1C(=O)N[C@@H]1C(=O)N2[C@@H]1SC(C)(C)[C@@H]2C(=O)O` [METHICILLIN], for which the MIC with Staphylococcus aureus [12] came to 256 µM (≈ 97.4 µg/mL); in the data set with Staphylococcus aureus [15], 2 µM (≈ 0.761 µg/mL); in the data set with Staphylococcus aureus [16], 4 µM (≈ 1.52 µg/mL); in data set [18], 2 µM (≈ 0.761 µg/mL).

A word on the MBC: it is the lowest tested concentration that kills the bacteria rather than only halting them. A low value points to greater bactericidal potency. What is called MIC is the lowest concentration that inhibits growth of the organism. A higher MIC goes with a less susceptible organism.
